Source: publication PMC4492764, “Evaluation of biomarkers for in vitro prediction of drug-induced nephrotoxicity: comparison of HK-2, immortalized human proximal tubule epithelial, and primary cultures of human proximal tubular cells” (Pharmacology Research & Perspectives, 2015)
Counter-ions that a name gives are not always drawn.

How the values were obtained:
M-CSF mRNA [1] = test: M-CSF mRNA qRT-PCR in HK-2 cells; assay type: cell-based, human; set-up: key to Upregulation of M-CSF HK-2 R: +: statistically significant increase; −: no significant increase; conditions: for Upregulation of M-CSF HK-2 R: mRNA levels, 72 h time point
Procedure: (§1) Hs00273334_m1), Lcn2 (NGAL; Hs01008571_m1), and Csf1 (M-CSF; Hs00174164_m1). All probes span an exon-exon junction. The real-time quantitative reverse transcription PCR (qRT-PCR) was performed in a 10 μl final reaction mixture using a ViiA 7TM system (Applied Biosystems®, Sydney, NSW, Australia) based on the following thermo cycling conditions: 10 min at 95°C for one cycle, 15 sec at 95°C, 60 sec at 60°C for 40 cycles. The ViiA 7TM software was used for data analysis with Hprt1 expression used for normalization. All assays were performed at least three times, with at least two technical replicates in each assay.

M-CSF [2] = test system: M-CSF; set-up: key: +: statistically significant increase; −: no significant increase; conditions: published in vivo data; ref Razzaque and Taguchi [2002]; Menke et al. [2009]; cited from earlier work
M-CSF mRNA [3] = test: M-CSF mRNA qRT-PCR in hRPTECs; assay type: cell-based, human; set-up: key to Upregulation of M-CSF hRPTECs R: +: statistically significant increase; −: no significant increase; conditions: for M-CSF mRNA levels in hRPTECs: 72 h (Fig.4C); for Upregulation of M-CSF hRPTECs R: mRNA levels, 72 h time point
Procedure: as §1

KIM-1 = conditions: published in vivo data; ref Vaidya et al. [2006]; cited from earlier work
M-CSF [4] = test: M-CSF protein ELISA in HK-2 cells; assay type: cell-based, human; set-up: key: +: statistically significant increase; −: no significant increase; conditions: protein levels in culture medium; 72 h time point
Procedure: (§2) Sandwich-ELISA experiments were conducted following the manufacturer's instructions with slight modifications. A 96-well microplate (MaxiSorp®, Nunc, Thermo Scientific, NSW, Australia) was coated with 100 μL of capture antibodies (diluted 1:200 in PBS) and incubated overnight. The plate was then washed twice with washing buffer (0.05% Tween 20 in PBS, pH 7.4) and blocked by adding 300 μL of blocking buffer (1% bovine serum albumin (BSA) in PBS) for 1 h at room temperature. After washing two times with PBS, 100 μL of samples (cell culture media or cell lysates) or standards were then added to each well and incubated for 2 h at room temperature. The biotinylated detection antibodies were then diluted in blocking buffer, added to each well and incubated for 2 h. Horseradish peroxidase (HRP)-labeled streptavidin (100 μL) was then added to bind to detection antibodies. To each well, 100 μL of substrate solution (1:1 mixture of H2O2 and tetramethylbenzidine) was added and incubated for 20 min before reaction termination with 50 μL of stop solution (2N H2SO4). The optical density of each well was measured at 450 nm using a POLARstar Omega plate reader (BMG Labtech). All assays were performed at least three times, with at least two technical replicates in each assay.

M-CSF [5] = test: M-CSF protein ELISA in hRPTECs; assay type: cell-based, human; set-up: key: +: statistically significant increase; −: no significant increase; conditions: protein levels in culture medium; 72 h time point
Procedure: as §2

[6] = MTT cytotoxicity assay in hRPTECs; assay type: cell-based, human; conditions: human, hRPTECs (passage 2); 72 h incubation; Mean ± Standard deviation, n = 3
Procedure: (§3) For the MTT assay, the medium was then removed, the dried crystals were resuspended in 60 μL of Dimethyl sulfoxide (DMSO), and the absorbance was read at 570 nm. For the resazurin assay, the fluorescence intensity was read using a PolarStar Omega plate reader (BMG Labtech; Mornington VIC, Australia) at excitation/emission 560/590 nm. All assays were performed at least three times. […] La Jolla, CA). Both MTT and resazurin assays were performed three times, with two technical replicates in each assay.

hRPTECs [7] = test: Resazurin cytotoxicity assay in hRPTECs; assay type: cell-based, human
Procedure: as §3

[8] = Resazurin cytotoxicity assay in hRPTECs; assay type: cell-based, human; conditions: human, hRPTECs (passage 2); 72 h incubation; Mean ± Standard deviation, n = 3
Procedure: as §3

[9] = MTT cytotoxicity assay in HK-2 cells; assay type: cell-based, human; conditions: human, HK-2 cells; 72 h incubation; Mean ± Standard deviation, n = 3
Procedure: as §3

HK-2 cells [10] = test: Resazurin cytotoxicity assay in HK-2 cells; assay type: cell-based, human
Procedure: as §3

[11] = Resazurin cytotoxicity assay in HK-2 cells; assay type: cell-based, human; conditions: human, HK-2 cells; 72 h incubation; Mean ± Standard deviation, n = 3
Procedure: as §3

hRPTECs [12] = test: MTT cytotoxicity assay in hRPTECs; assay type: cell-based, human; conditions: 72 h incubation; Mean ± Standard deviation, n = 3
Procedure: as §3

HK-2 cells [13] = test: MTT cytotoxicity assay in HK-2 cells; assay type: cell-based, human; conditions: 72 h incubation; Mean ± Standard deviation, n = 3
Procedure: as §3

[14] = 72 h, highest concentrations gentamicin 1 mmol/L, CsA 50 μmol/L, cell type not given
[15] = 72 h incubation, Mean ± Standard deviation, n = 3

Compound: N.N.[Cl][Pt][Cl] [Cisplatin, cisplatin]
- M-CSF mRNA level in HK-2 cells (M-CSF mRNA [1]; 72 h exposure, P < 0.005): clearly increased
- Upregulation of M-CSF HK-2 R (M-CSF mRNA [1]): +
- Upregulation of M-CSF in vivo (M-CSF [2]): + (Razzaque and Taguchi [2002]; Menke et al. [2009])
- M-CSF mRNA levels in hRPTECs (M-CSF mRNA [3]): significant results
- Upregulation of M-CSF hRPTECs R (M-CSF mRNA [3]): +
- Upregulation of KIM-1 in vivo (KIM-1): >5-fold (Vaidya et al. [2006])
- Upregulation of M-CSF HK-2 P (M-CSF [4]): −
- Upregulation of M-CSF hRPTECs P (M-CSF [5]): +

Compound: CNC(C)C1CCC(N)C(OC2C(N)CC(N)C(OC3OCC(C)(O)C(NC)C3O)C2O)O1 (centres unmarked) [Gentamicin, gentamicin sulfate]
- CC50 at 72 h [6]: > 1000 µM
- toxicity in resazurin assay at highest concentration tested (hRPTECs [7]; [14]): no toxicity
- CC50 at 72 h [8]: > 1000 µM
- CC50 at 72 h [9]: > 1000 µM
- toxicity in resazurin assay at highest concentration tested (HK-2 cells [10]; [14]): no toxicity
- CC50 at 72 h [11]: > 1000 µM

Compound: Colistin sulfate
- Upregulation of M-CSF HK-2 R (M-CSF mRNA [1]): −
- M-CSF mRNA levels in hRPTECs (M-CSF mRNA [3]): significant results
- Upregulation of M-CSF hRPTECs R (M-CSF mRNA [3]): +
- CC50 (hRPTECs [12]): > 300 µM
- Upregulation of M-CSF HK-2 P (M-CSF [4]): −
- CC50 (hRPTECs [7]; [15]): 177 ± 15 µM
- CC50 (HK-2 cells [13]): > 300 µM
- CC50 (HK-2 cells [10]; [15]): > 300 µM
- Upregulation of M-CSF hRPTECs P (M-CSF [5]): −
